As usually defined, the IC20 is the concentration needed for an effect of 20%. The low end stands for greater potency, the high end for weaker potency. The term IC50 denotes the concentration at which inhibition is half-maximal. Broadly, the Ki is a dissociation constant, usually derived from enzyme kinetics or from competition with a known ligand.

Each structure is given as a SMILES string. Like-named read-outs stand apart in the source and are kept apart here. Bounds are passed on as bounds.

Results on 16 compounds are retold here after article PMC7015555, “Transthyretin-Binding Activity of Complex Mixtures Representing the Composition of Thyroid-Hormone Disrupting Contaminants in House Dust and Human Serum” (Environmental Health Perspectives, 2020).

For assay [1], the target named is TTR (Homo sapiens, UniProt P02766). Briefly: FITC-T4 TTR competitive binding assay. The conditions noted are these: for REP (relative potency compared to T4): IC20 of T4 / IC20 of compound (Equation 14); for T4EQ concentration (nmol/g dust): reported concentration of the compound in SRM2585 dust x REP; for maximum competitive potency at high test concentrations: Figure 1C; for inhibition of FITC-T4-TTR-binding: present study (Figure 1C).

Assay [2] deals with TTR. The conditions noted are these: cited from earlier work; for IC50: read-out: IC50 (M), Radioactive Ligand Binding Assay data from the literature; for REP, Radioactive Ligand Binding Assay data from the literature: relative effect potency; for T4-TTR binding inhibition in the RLBA: at 10 µM (highest concentration).
[3] abbreviates: 20% inhibition of FITC-T4 binding to TTR, 30 nM TTR, 110 nM FITC-T4, 2 h at 4°C, pH 8.0.
[4] abbreviates: individual compounds, 30 nM TTR, 110 nM FITC-T4, 2 h at 4°C, pH 8.0, — = 50% inhibition level not reached (footnote g), read-out: IC50.
Setting [5] is: inhibitor-TTR dissociation constant converted from IC20 (Equation 4), 4°C, read-out: Ki.

Compound `O=C(O)C(F)(F)C(F)(F)C(F)(F)C(F)(F)C(F)(F)C(F)(F)C(F)(F)C(F)(F)C(F)(F)F` [PFDA, perfluorodecanoic acid] returned an IC20 at TTR [1] (setting [3]) of 1700 nM. At TTR [1], the “REP (relative potency compared to T4)” value is on record as 0.012 and the “T4EQ concentration (nmol/g dust)” value is 0.001 nmol/g dust. Further, the IC50 on TTR [1] (setting [4]) came out at 5400 nM. For the same compound, the Ki at TTR [1] (read-out: Ki) was 3700 nM. Besides, in the assay with TTR [2] (ref Weiss et al. 2015), the concentration for half-maximal inhibition (IC50) is 8.95e-06 M and the “REP, Radioactive Ligand Binding Assay data from the literature” value (“REP … from the literature” for short) is given as 0.007.

`Clc1cc(Cl)c(-c2cc(Cl)c(Cl)cc2Cl)cc1Cl` [CB-153, 2,2ʹ,4,4ʹ,5,5ʹ-hexachlorobiphenyl]: at TTR [1], the inhibition constant Ki is 150 nM, the “maximum competitive potency at high test concentrations” value is “leveled off before reaching complete inhibition”, the “REP (relative potency compared to T4)” value was found to be 0.27 and the “T4EQ concentration (nmol/g dust)” value came to 0.030 nmol/g dust. On TTR [1] (pH 8), this compound showed an IC20 of 77 nM. The concentration for half-maximal inhibition (IC50) on TTR [1] (read-out: IC50) stood at 180 nM. Also, in the assay on TTR [2] (ref Weiss et al. 2015), the IC50 is greater than 1.5e-05 M and the “REP … from the literature” value is on record as less than 0.0037. Also, the “REP … from the literature” value in the assay on TTR [2] (ref Hamers et al. (2011)) is recorded as less than 0.0037. In addition, the “pIC50 in the RLBA” value in the assay on TTR [2] (–log(IC50), ref Excel Table S1) is given as less than 4.8.

As for `O=C(O)C(F)(F)C(F)(F)C(F)(F)C(F)(F)C(F)(F)C(F)(F)C(F)(F)F` [PFOA, perfluorooctanoic acid], on TTR [1], the Ki was 1100 nM, the “REP (relative potency compared to T4)” value is recorded as 0.043 and the “T4EQ concentration (nmol/g dust)” value was 0.060 nmol/g dust. In addition, on TTR [1] (pH 8), the IC20 was determined as 490 nM. The IC50 on TTR [1] (read-out: IC50) worked out at 1100 nM. In the assay on TTR [2] (ref Weiss et al. 2015), the IC50 was 9.49e-07 M and the “REP … from the literature” value is recorded as 0.064.

Consider `Oc1cc(Cl)ccc1Oc1ccc(Cl)cc1Cl` [Triclosan, 5-chloro-2-(2,4-dichlorophenoxy)phenol], for which, in the assay with TTR [2] (ref Weiss et al. 2015), the half-maximal inhibitory concentration (IC50) is […] and the “REP … from the literature” value was […].

Take `Oc1c(Cl)c(Cl)c(-c2cc(Cl)c(Cl)cc2Cl)c(Cl)c1Cl` [4-OH-CB-187, 4-OH-2,2ʹ,3,4ʹ,5,5ʹ,6-heptachlorobiphenyl]: the IC20 on TTR [1] (setting [3]) was found to be 8.2 nM. In addition, on TTR [1], the “REP (relative potency compared to T4)” value is on record as 2.6. Moreover, the IC50 on TTR [1] (setting [4]) worked out at 17 nM. Further, the Ki on TTR [1] (setting [5]) was 4 nM. Also, in the assay on TTR [2] (ref Weiss et al. 2015), the IC50 is 1.98e-08 M and the “REP … from the literature” value is 4.

`Brc1ccc(Oc2ccc(Br)cc2Br)c(Br)c1` [BDE-47, 2,2ʹ,4,4ʹ-tetrabromodiphenyl ether]: at TTR [1], affinity was put at a Ki of 440 nM, the “REP (relative potency compared to T4)” value is reported as 0.10 and the “T4EQ concentration (nmol/g dust)” value worked out at 0.103 nmol/g dust. The compound further registered a concentration for an effect of 20% (IC20) on TTR [1] (pH 8) of 210 nM. On TTR [1] (read-out: IC50), the IC50 came out at 1300 nM. Moreover, in the assay with TTR [2] (ref Weiss et al. 2015), the IC50 was 3.6e-05 M and the “REP … from the literature” value is recorded as 0.0025.

The compound `Oc1cc(Br)cc(Br)c1Oc1cc(Br)c(Br)cc1Br` [6ʹ-OH-BDE-99, 6ʹ-OH-2,2ʹ,4,4ʹ,5-pentabromodiphenyl ether] registered an IC20 on TTR [1] (setting [3]) of 8.4 nM. Besides, on TTR [1], the “REP (relative potency compared to T4)” value came out at 2.5. Moreover, at TTR [1] (setting [4]), the IC50 was determined as 20 nM. Besides, at TTR [1] (setting [5]), the Ki was found to be 4.5 nM. Further, the “REP … from the literature” value with TTR [2] (ref Marchesini et al. 2008) is 0.2.

In the case of `CCCCCCCCCc1ccc(O)cc1` [4-Nonylphenol, 4-nonylphenol], on TTR [1], the affinity corresponds to a Ki of 3900 nM, the “REP (relative potency compared to T4)” value is 0.012 and the “T4EQ concentration (nmol/g dust)” value was found to be 0.946 nmol/g dust. This compound displayed an IC20 on TTR [1] (pH 8) of 1800 nM. Moreover, the IC50 at TTR [1] (read-out: IC50) was 16000 nM. Moreover, in the assay on TTR [2] (ref Weiss et al. 2015), the IC50 is 1e-05 M and the “REP … from the literature” value is 0.008.

For the compound `O=C(O)C(F)(F)C(F)(F)C(F)(F)C(F)(F)C(F)(F)C(F)(F)F` [PFHpA, perfluoroheptanoic acid], at TTR [1], the Ki turned out to be 640 nM, the “REP (relative potency compared to T4)” value is reported as 0.071 and the “T4EQ concentration (nmol/g dust)” value came to 0.048 nmol/g dust. The compound also yielded an IC20 on TTR [1] (pH 8) of 300 nM. Moreover, the IC50 at TTR [1] (read-out: IC50) was determined as 1200 nM. Besides, in the assay on TTR [2] (ref Weiss et al. 2015), the IC50 is 1.57e-06 M and the “REP … from the literature” value is listed as 0.039.

Regarding `Clc1ccc(-c2cc(Cl)c(Cl)cc2Cl)cc1Cl` [CB-118, 2,3ʹ,4,4ʹ,5-pentachlorobiphenyl], at TTR [1], the “REP (relative potency compared to T4)” value was 0.14, the “inhibition of FITC-T4-TTR-binding” value was greater than 20% and the “T4EQ concentration (nmol/g dust)” value stood at 0.011 nmol/g dust. In addition, at TTR [1] (setting [5]), the Ki stood at 320 nM. On TTR [1] (pH 8), this compound registered an IC20 of 160 nM. The IC50 at TTR [1] (read-out: IC50) turned out to be 560 nM. Also, in the assay on TTR [2] (ref Hamers et al. 2011), the “T4-TTR binding inhibition in the RLBA” value was <20% inhibition at 10 µM (Hamers et al. 2011).

Take `Oc1c(Cl)c(Cl)c(Cl)c(Cl)c1Cl` [Pentachlorophenol, pentachlorophenol]: at TTR [1], the IC50 was found to be 60 nM, affinity was put at a Ki of 24 nM and the “REP (relative potency compared to T4)” value is recorded as 1.2. For the same compound, the IC20 on TTR [1] (pH 8) was found to be 17 nM. In the assay on TTR [2] (ref Weiss et al. 2015), the IC50 was 2.3e-07 M and the “REP … from the literature” value was 1.74.

Regarding `O=C(O)C(F)(F)C(F)(F)C(F)(F)C(F)(F)C(F)(F)C(F)(F)C(F)(F)C(F)(F)C(F)(F)C(F)(F)F` [PFUnDA, perfluoroundecanoic acid], at TTR [1] (setting [3]), the IC20 came out at 1000 nM. Moreover, at TTR [1], the “REP (relative potency compared to T4)” value turned out to be 0.021 and the “T4EQ concentration (nmol/g dust)” value was 0.002 nmol/g dust. The 50% inhibitory concentration (IC50) on TTR [1] (setting [4]) was 3100 nM. Besides, the Ki at TTR [1] (read-out: Ki) is 2200 nM. In addition, in the assay with TTR [2] (ref Weiss et al. 2015), the IC50 was 2.16e-05 M and the “REP … from the literature” value was 0.003.

As to `O=C(O)C(F)(F)C(F)(F)C(F)(F)C(F)(F)C(F)(F)C(F)(F)C(F)(F)C(F)(F)F` [PFNA, perfluorononanoic acid], the IC20 on TTR [1] (setting [3]) came to 360 nM. Also, on TTR [1], the “REP (relative potency compared to T4)” value is 0.059 and the “T4EQ concentration (nmol/g dust)” value was found to be 0.013 nmol/g dust. The IC50 on TTR [1] (setting [4]) came out at 1100 nM. Moreover, on TTR [1] (read-out: Ki), the Ki stood at 770 nM. Also, in the assay on TTR [2] (ref Weiss et al. 2015), the half-inhibitory concentration (IC50) was 2.74e-06 M and the “REP … from the literature” value is 0.022.

On to `Oc1c(Br)cc(Br)cc1Br` [2,4,6-TBP, 2,4,6-tribromophenol], for which, on TTR [1], the affinity corresponds to a Ki of 5.5 nM and the “REP (relative potency compared to T4)” value stood at 2.4. At TTR [1] (pH 8), this compound displayed an IC20 of 8.9 nM. In addition, the concentration for half-maximal inhibition (IC50) on TTR [1] (read-out: IC50) came out at 29 nM. Moreover, in the assay on TTR [2] (ref Weiss et al. 2015), the IC50 is 4.8e-09 M and the “REP … from the literature” value was 10.

With `NS(=O)(=O)C(F)(F)C(F)(F)C(F)(F)C(F)(F)C(F)(F)C(F)(F)C(F)(F)C(F)(F)F` [FOSA, perfluorooctane sulfonamide], on TTR [1], the “REP (relative potency compared to T4)” value was determined as 0.11 and the “T4EQ concentration (nmol/g dust)” value is on record as 0.002 nmol/g dust. Also, the Ki on TTR [1] (setting [5]) amounted to 400 nM. Further, the IC20 on TTR [1] (pH 8) amounted to 190 nM. At TTR [1] (read-out: IC50), the IC50 stood at 730 nM. Also, in the assay on TTR [2] (ref Weiss et al. 2015), the IC50 was 6.12e-06 M and the “REP … from the literature” value was 0.01.

As to `Brc1ccc(Oc2cc(Br)c(Br)cc2Br)c(Br)c1` [BDE-99, 2,2ʹ,4,4ʹ,5-pentabromodiphenyl ether], at TTR [1], the affinity, expressed as Ki, was 150 nM; the “maximum competitive potency at high test concentrations” value was “leveled off before reaching complete inhibition”; the “REP (relative potency compared to T4)” value turned out to be 0.29; the “inhibition of FITC-T4-TTR-binding” value is greater than 20%. Moreover, the “T4EQ concentration (nmol/g dust)” value on TTR [1] was found to be 0.458 nmol/g dust. Moreover, at TTR [1] (pH 8), the IC20 came out at 73 nM. Also, the “T4-TTR binding inhibition in the RLBA” value with TTR [2] (ref Hamers et al. 2006) is on record as <20% inhibition at 10 µM (Hamers et al. 2006).
